The target in assay [1] is T1, Speckle-type POZ protein-Bromodomain-containing protein 4 (Homo sapiens, UniProt O60885+O43791). The experiment in a line: PROTAC activity at SPOP/BRD4-L in human HT-29 cells assessed as induction of BRD4 long isoform degradation at 0.5 to 5 uM incubated for 24 hrs by Western blotting analysis. The assay is classed as cell-based. Particulars: dose 0.5-5 µM. (Immunoblotting shows a protein as a band on a membrane.)

For assay [2], the target named is T1, Speckle-type POZ protein-Bromodomain-containing protein 4. Nature of the assay: PROTAC activity at SPOP/BRD4-S in human HT-29 cells assessed as induction of BRD4 short isoform degradation at 0.5 to 5 uM incubated for 24 hrs by Western blotting analysis. The assay is classed as cell-based. Particulars: dose 0.5-5 µM.
Assay [3] relates to HT-29. Nature of the assay: Binding affinity to BRD4-S/GLP/SPOP in human HT-29 cells assessed as compound-BRD4-GLP-SPOP quaternary complex formation at 20 to 100 uM incubated for 1 hrs by pulldown based Western blot analysis. The assay is classed as cell-based. Particulars: dose 20-100 µM.
Assay [4] concerns HEK293T. The experiment in a line: Binding affinity to BRD4-S/GLP/SPOP in HEK293T cells assessed as compound-BRD4-GLP-SPOP quaternary complex formation at 20 to 100 uM incubated for 1 hrs by pulldown based Western blot analysis. In kind it is cell-based. Particulars: Homo sapiens, dose 20-100 µM.
Assay [5] relates to HT-29. Nature of the assay: Effect on BRD2 mRNA expression level in human HT-29 cells at 5 uM incubated for 24 hrs by RT-qPCR analysis. In kind it is functional, cell-based.
The target in assay [6] is T1, Speckle-type POZ protein-Bromodomain-containing protein 4. Nature of the assay: PROTAC activity at SPOP/BRD4-S in human HT-29 cells assessed as induction of BRD4 short isoform degradation at 5 uM incubated for 24 hrs by Western blotting analysis relative to control. In kind it is cell-based.
In assay [7] the test system is HT-29. Nature of the assay: Effect on BRD3 mRNA expression level in human HT-29 cells at 5 uM incubated for 24 hrs by RT-qPCR analysis. In kind it is functional, cell-based.
For assay [8], the system named is HT-29. Nature of the assay: Antiproliferative activity against human HT-29 cells assessed as reduction in cell growth up to 10 uM incubated for 3 days by WST-8 reagent based assay. Particulars: time 3.0 day. In kind it is functional. A general note: Tetrazolium assays rely on reduction of a dye to a coloured formazan, in cell work by metabolically active cells.

Assay [9] relates to HT-29. The experiment in a line: Effect on BRD4 long isoform mRNA expression level in human HT-29 cells at 5 uM incubated for 24 hrs by RT-qPCR analysis. In kind it is functional, cell-based.
The test system of assay [10] is HT-29. Nature of the assay: Effect on BRD4 short isoform mRNA expression level in human HT-29 cells at 5 uM incubated for 24 hrs by RT-qPCR analysis. In kind it is functional, cell-based.
Assay [11] relates to HT-29. The experiment in a line: Effect on c-MYC mRNA expression level in human HT-29 cells at 5 uM incubated for 24 hrs by RT-qPCR analysis. In kind it is functional, cell-based.

Structures are written as SMILES. The source made the active and inactive calls. The calls are words filed in the database; no cut-off is given here.

T1 sequence (O43791 whole entry, looked up, other chains not shown, canonical isoform): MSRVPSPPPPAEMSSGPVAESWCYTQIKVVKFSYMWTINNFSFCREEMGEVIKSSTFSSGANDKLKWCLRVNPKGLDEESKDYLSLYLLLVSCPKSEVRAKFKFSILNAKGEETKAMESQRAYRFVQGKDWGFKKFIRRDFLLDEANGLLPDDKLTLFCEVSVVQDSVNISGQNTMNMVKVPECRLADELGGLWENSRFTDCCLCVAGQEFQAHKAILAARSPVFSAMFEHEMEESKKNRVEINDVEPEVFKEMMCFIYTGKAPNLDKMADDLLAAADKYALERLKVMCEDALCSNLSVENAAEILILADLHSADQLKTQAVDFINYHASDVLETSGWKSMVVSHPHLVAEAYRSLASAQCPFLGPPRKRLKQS

Take `COc1cc2c(NC3CCN(CCCC(=O)NCCCCCNC(=O)C[C@@H]4N=C(c5ccc(Cl)cc5)c5c(sc(C)c5C)-n5c(C)nnc54)CC3)cc(N3CCOCC3)nc2cc1OCCCN1CCCC1`: the outcome in assay [1] and in assay [2] was inactive.
Consider `COc1cc2c(NC3CCN(CCCC(=O)NCCNC(=O)C[C@@H]4N=C(c5ccc(Cl)cc5)c5c(sc(C)c5C)-n5c(C)nnc54)CC3)cc(N3CCOCC3)nc2cc1OCCCN1CCCC1`, for which the outcome in [1] and in [2] was inactive.
On to `COc1cc2c(NC3CCN(CCCC(=O)NCCCCCCCNC(=O)C[C@@H]4N=C(c5ccc(Cl)cc5)c5c(sc(C)c5C)-n5c(C)nnc54)CC3)cc(N3CCOCC3)nc2cc1OCCCN1CCCC1`, for which the result in assay [1] and in assay [2] was inactive.
Turning to `COc1cc2c(NC3CCN(CCCC(=O)NCCCCCCCCCNC(=O)C[C@@H]4N=C(c5ccc(Cl)cc5)c5c(sc(C)c5C)-n5c(C)nnc54)CC3)cc(N3CCOCC3)nc2cc1OCCCN1CCCC1`, the outcome in [1] was inactive. The result in assay [2] was Active.
The corresponding values for `COc1cc2c(NC3CCN(CCCC(=O)NCCCNC(=O)C[C@@H]4N=C(c5ccc(Cl)cc5)c5c(sc(C)c5C)-n5c(C)nnc54)CC3)cc(N3CCOCC3)nc2cc1OCCCN1CCCC1` are “inactive” and “inactive”.
`COc1cc2c(NC3CCN(CCCC(=O)NCCCCCCCCCCNC(=O)C[C@@H]4N=C(c5ccc(NC(=O)CCOCCOCCOCCOCCOCCOCCNC(=O)CCCC[C@@H]6SC[C@@H]7NC(=O)N[C@@H]76)cc5)c5c(sc(C)c5C)-n5c(C)nnc54)CC3)cc(N3CCOCC3)nc2cc1OCCCN1CCCC1`: the outcome in [3] and in assay [4] was Active.
Regarding `COc1cc2c(NC3CCN(CCCC(=O)NCCCCNC(=O)C[C@@H]4N=C(c5ccc(Cl)cc5)c5c(sc(C)c5C)-n5c(C)nnc54)CC3)cc(N3CCOCC3)nc2cc1OCCCN1CCCC1`, the outcome in assay [1] and in assay [2] was inactive.
In the case of `COc1cc2c(NC3CCN(CCCC(=O)NCCCCCCNC(=O)C[C@@H]4N=C(c5ccc(Cl)cc5)c5c(sc(C)c5C)-n5c(C)nnc54)CC3)cc(N3CCOCC3)nc2cc1OCCCN1CCCC1`, the result in [1] and in assay [2] was inactive.
On to `COc1cc2c(N(C)C3CCN(CCCC(=O)NCCCCCCCCCCNC(=O)C[C@@H]4N=C(c5ccc(Cl)cc5)c5c(sc(C)c5C)-n5c(C)nnc54)CC3)cc(N3CCOCC3)nc2cc1OCCCN1CCCC1`, for which the outcome in assay [5], in assay [6], in [7], in [8], in assay [9] and in assay [10] was inactive. The result in [11] was inactive.
`COc1cc2c(NC3CCN(CCCC(=O)NCCCCCCCCNC(=O)C[C@@H]4N=C(c5ccc(Cl)cc5)c5c(sc(C)c5C)-n5c(C)nnc54)CC3)cc(N3CCOCC3)nc2cc1OCCCN1CCCC1`: in [1], the outcome was inactive. For the same molecule, the outcome in assay [2] was Active.
As for `COc1cc2c(NC3CCN(CCCC(=O)NCCCCCCCCCCNC(=O)C[C@H]4N=C(c5ccc(Cl)cc5)c5c(sc(C)c5C)-n5c(C)nnc54)CC3)cc(N3CCOCC3)nc2cc1OCCCN1CCCC1`, the result in assay [5], in assay [6], in assay [7], in assay [8], in [9] and in assay [10] was inactive. In addition, the outcome in assay [11] was inactive.
